Common to all, as to assay: DSF thermal shift, kinase panel
Format in all cases: binding
What all share (conditions): 10 μM compound

The target in one assay is T1, BMXA (Homo sapiens, UniProt P51813).
T1 construct: purchased in-house (home-made panel, SGC-style construct names)
T1 sequence (P51813 1-675): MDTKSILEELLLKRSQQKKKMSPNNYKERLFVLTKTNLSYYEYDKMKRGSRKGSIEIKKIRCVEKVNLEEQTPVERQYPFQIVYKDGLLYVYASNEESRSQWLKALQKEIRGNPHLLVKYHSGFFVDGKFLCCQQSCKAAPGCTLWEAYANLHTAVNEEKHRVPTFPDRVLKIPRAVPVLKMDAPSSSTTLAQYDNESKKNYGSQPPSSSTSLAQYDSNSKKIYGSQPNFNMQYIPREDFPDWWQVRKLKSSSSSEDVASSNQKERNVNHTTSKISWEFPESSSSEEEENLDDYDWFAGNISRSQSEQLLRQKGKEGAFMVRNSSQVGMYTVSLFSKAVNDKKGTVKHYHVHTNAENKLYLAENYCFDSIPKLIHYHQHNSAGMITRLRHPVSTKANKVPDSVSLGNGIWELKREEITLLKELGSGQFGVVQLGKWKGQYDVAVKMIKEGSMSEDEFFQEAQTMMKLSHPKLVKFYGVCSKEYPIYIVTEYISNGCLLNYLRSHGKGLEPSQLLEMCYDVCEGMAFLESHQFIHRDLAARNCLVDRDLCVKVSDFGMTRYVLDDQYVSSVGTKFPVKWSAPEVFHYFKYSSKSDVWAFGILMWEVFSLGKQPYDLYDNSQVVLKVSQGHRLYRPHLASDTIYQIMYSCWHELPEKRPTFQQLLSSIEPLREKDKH
As for the experimental part: (§1) The corresponding dianilino-TDZs (1–5) were tested on a panel of 46 protein kinases representing the major kinome branches at a concentration of 10 μM using a Differential Scanning Fluorimetry (DSF). Only analogues 1–3 induced a significant (>2 °C) thermal shift when incubated with a subset of the proteins (Table 1).
(§2) Kinase selectivity assay—A home-made kinase panel was generated for the following enzymes: AAK1, BMP2K, BMX, BRAF, CAMK1D, CAMK1G, CAMKK1, CAMKK2B, CDC42BPA, CDK2, CDKL1, CHEK2, CLK1, CSNK1G1, CSNK1G3, CSNK2A1, DYRK1A, DYRK2A, EPHA2, GAK, GSG2, MAPK1, MAP2K7, MAPK14B, MAPK3, PHKG2, PIM1, PLK1, PKMYT1, PRPF4B, RPS6KA1A, RPS6KA5A, RPS6KA6A, SLK, SRPK1, SRPK2, STK3, STK6, STK10, STK17A, STK24, STK38L, TRIB2, TTK, VRK1 and VRK2. Proteins were produced in E. coli, purified in a Ni-chelate column, followed by overnight digestion using TEV protease (made in house with an N-terminal 6xHis tag) and dialysis to remove imidazole. To clear samples of uncleaved proteins and the TEV protease, samples were loaded on new Ni-chelate columns. The flow through was collected, concentrated and loaded to a HiLoad Superdex 200 16/600 column (GE Healthcare, Chicago, IL, USA) for final polishing and buffer exchange.
(§3) Starting from 100 µM protein stocks, our kinase panel enzymes were diluted to 1 µM in buffer 100 mM K2HPO4 pH 7.5 containing 150 mM NaCl, 10% glycerol and 5X dye (Applied Biosystems catalogue 4461806). The protein/dye mixture was transferred to a 384-well PCR microplate having 20 µL per well. Compounds in DMSO at 10 mM concentration were added in 20 nL volume, using a liquid handling device setup with a pin head, to make 10 µM compound concentration in the assay plate.
(§4) Protein thermal shift data was measured in a qPCR instrument (Applied Biosystems QuantStudio 6) programmed to equilibrate the plate at 25 °C for 5 min followed by ramping the temperature to 95 °C at a rate of 0.05 °C/s. Data was processed using Protein Thermal shift software (Applied Biosystems) by fitting experimental curves to a Boltzmann function to calculate differential thermal shifts (dTm) referenced to protein/dye in 0.2% DMSO.

A further assay deals with T2, CAMKK1 (Homo sapiens, UniProt Q8N5S9).
T2 construct: purchased in-house (home-made panel, SGC-style construct names)
T2 sequence (Q8N5S9 whole entry): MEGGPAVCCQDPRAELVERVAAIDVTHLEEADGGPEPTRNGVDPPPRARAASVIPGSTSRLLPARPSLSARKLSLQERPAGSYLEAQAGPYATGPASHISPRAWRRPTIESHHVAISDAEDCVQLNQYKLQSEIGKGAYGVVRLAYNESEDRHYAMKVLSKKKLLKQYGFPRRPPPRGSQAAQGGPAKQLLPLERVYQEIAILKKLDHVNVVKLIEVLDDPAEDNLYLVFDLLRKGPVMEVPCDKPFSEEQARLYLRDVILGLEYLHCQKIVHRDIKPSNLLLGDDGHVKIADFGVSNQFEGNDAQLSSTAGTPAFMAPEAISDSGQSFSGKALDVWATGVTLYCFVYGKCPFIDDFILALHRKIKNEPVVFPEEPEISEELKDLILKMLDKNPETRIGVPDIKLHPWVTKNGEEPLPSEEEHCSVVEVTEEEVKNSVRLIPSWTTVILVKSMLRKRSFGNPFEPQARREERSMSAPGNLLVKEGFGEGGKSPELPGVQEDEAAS
As for the experimental part: as §1, §2, §3, §4

The target of another assay is T3, GAKA (Homo sapiens, UniProt O14976).
T3 construct: purchased in-house (home-made panel, SGC-style construct names)
T3 sequence (O14976 1-1311): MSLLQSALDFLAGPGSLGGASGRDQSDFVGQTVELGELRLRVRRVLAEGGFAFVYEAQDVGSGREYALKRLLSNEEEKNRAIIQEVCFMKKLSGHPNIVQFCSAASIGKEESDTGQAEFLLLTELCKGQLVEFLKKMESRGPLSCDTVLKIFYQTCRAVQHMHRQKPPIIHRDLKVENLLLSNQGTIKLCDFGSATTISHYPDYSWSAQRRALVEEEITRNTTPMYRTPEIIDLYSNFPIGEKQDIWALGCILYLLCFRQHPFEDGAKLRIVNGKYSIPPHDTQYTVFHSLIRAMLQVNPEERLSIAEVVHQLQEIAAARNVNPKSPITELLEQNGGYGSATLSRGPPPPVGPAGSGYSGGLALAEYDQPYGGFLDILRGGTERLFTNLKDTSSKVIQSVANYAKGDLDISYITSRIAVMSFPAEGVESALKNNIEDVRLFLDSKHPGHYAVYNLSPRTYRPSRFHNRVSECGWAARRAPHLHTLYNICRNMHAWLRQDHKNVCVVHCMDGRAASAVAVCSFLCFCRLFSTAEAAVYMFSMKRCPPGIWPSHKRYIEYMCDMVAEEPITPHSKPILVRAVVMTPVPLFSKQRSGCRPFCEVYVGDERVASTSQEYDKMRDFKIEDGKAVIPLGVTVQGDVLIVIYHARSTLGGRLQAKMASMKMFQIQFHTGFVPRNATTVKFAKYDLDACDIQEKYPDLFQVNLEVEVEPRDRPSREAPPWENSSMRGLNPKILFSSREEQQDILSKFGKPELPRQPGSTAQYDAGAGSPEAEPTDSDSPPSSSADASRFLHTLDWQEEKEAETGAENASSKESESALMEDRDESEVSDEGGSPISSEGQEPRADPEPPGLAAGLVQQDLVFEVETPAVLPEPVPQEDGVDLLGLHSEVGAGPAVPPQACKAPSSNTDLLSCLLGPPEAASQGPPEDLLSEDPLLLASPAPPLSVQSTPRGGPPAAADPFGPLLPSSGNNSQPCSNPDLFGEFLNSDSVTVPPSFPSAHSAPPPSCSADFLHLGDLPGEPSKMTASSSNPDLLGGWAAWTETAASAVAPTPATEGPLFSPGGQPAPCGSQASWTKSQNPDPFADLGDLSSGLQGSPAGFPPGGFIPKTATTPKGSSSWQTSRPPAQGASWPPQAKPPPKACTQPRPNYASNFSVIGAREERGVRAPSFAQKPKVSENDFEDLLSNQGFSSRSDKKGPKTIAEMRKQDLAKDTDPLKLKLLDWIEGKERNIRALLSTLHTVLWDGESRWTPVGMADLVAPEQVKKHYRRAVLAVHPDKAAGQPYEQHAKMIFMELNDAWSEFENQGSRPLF
Here is the method: as §1, §2, §3, §4

Take `CNC(=O)c1ccccc1Nc1nsnc(Nc2cccc(CS(C)(=O)=O)c2)c1=O` [Compound 4, N-Methyl-2-([5-({3-[(methylsulfonyl)methyl]phenyl}amino)-4-oxo-4H-1,2,6-thiadiazin-3-yl]-amino}-benzamide]: the values for the ΔTm at 10 µM on BMXA, on CAMKK1 and on GAKA were 0 °C, -0.4 °C and -0.4 °C, respectively.
With `CNC(=O)c1ccccc1Nc1nsnc(Nc2ccc(N3CCOCC3)cc2)c1=O` [Compound 5, N-Methyl-2-({5-[(4-morpholinophenyl)amino]-4-oxo-4H-1,2,6-thiadiazin-3-yl}amino)benzamide], the ΔTm at 10 µM is 0 °C at BMXA, -0.4 °C on CAMKK1 and -0.4 °C on GAKA.
Consider `Cc1ccc(Nc2nsnc(Nc3cccc(C(N)=O)c3)c2=O)cc1O` [Compound 1, 3-({5-[(3-Hydroxy-4-methylphenyl)amino]-4-oxo-4H-1,2,6-thiadiazin-3-yl}amino)benzamide], for which the ΔTm at 10 µM is 0.1 °C at BMXA, 0 °C on CAMKK1 and -0.3 °C at GAKA.
`Cc1ccc(Nc2nsnc(Nc3ccc(C(N)=O)cc3)c2=O)cc1O` [Compound 2, 4-({5-[(3-Hydroxy-4-methylphenyl)amino]-4-oxo-4H-1,2,6-thiadiazin-3-yl}amino)benzamide]: the ΔTm at 10 µM on BMXA was -0.1 °C; on CAMKK1, 3.7 °C; on GAKA it was 1.4 °C.
For `Cc1ccc(Nc2nsnc(Nc3ccc4c(c3)CS(=O)(=O)C4)c2=O)cc1O` [Compound 3, 3-[(2,2-Dioxido-1,3-dihydrobenzo[c]thiophen-5-yl)amino]-5-[(3-hydroxy-4-methylphenyl)amino]-4H-1,2,6-thiadiazin-4-one], in that order: 0 °C, 1.4 °C and 0 °C.

Source of the values: publication PMC6019134, “1,2,6-Thiadiazinones as Novel Narrow Spectrum Calcium/Calmodulin-Dependent Protein Kinase Kinase 2 (CaMKK2) Inhibitors” (Molecules : A Journal of Synthetic Chemistry and Natural …, 2018).
